Results from patent publication EP3727043B1 (Golden Gait Biotech, S.L., priority 2017, dated 2019).
Like-named read-outs stand apart in the source and are kept apart here.

Columns and labels:
clinical = conditions: human, plasma, po
[1] = tested on: patients with idiopathic PD and levodopa induced dyskinesias (LIDs)
Experimental: At the time the study was performed (2009), there was no FDA accepted instrument for measuring treatment efficacy for LIDs. Therefore, several secondary objectives were utilized to assess efficacy including the Unified Dyskinesia Rating Scale (UDysRS).
A total of 65 male and female subjects with idiopathic PD with LIDs were randomized in the study. The study consisted of 4 phases (FIG. 6A): screening phase (up to 3 weeks), double-blind treatment phase (10 weeks), taper phase (2 weeks), and follow-up phase (2 weeks). The approximate duration of the study for each subject was 17 weeks. […] During the double-blind treatment phase, dosing was begun at Visit 0 at 1 mg every 6 hours (total daily dose [TDD] = 4 mg/day) and escalated upwards at 2-week intervals as follows: 2 mg every 6 hours (TDD = 8 mg/day) at Visit 1 (Week 2); 4 mg every 6 hours (TDD = 16 mg/day) at Visit 2 (Week 4); 6 mg every 6 hours (TDD = 24 mg/day) at Visit 3 (Week 6). Subjects were maintained on 24 mg/day for 4 weeks. The subsequent taper phase (2 weeks total), beginning at Visit 4 (Week 10), consisted of 9 days of drug taper and 5 days off drug prior to Visit 5 (final safety visit). […] Ondansetron was provided by the sponsor and dispensed with each dose escalation step with instructions to use it for nausea and vomiting only during the first 4 days following dose initiation or escalation. […] No other dose down-titration was allowed. Table 5. Dose Escalation Schedule
A total of 65 patients with idiopathic PD and levodopa induced dyskinesias (LIDs) were randomized. Patients were required to have a diagnosis of idiopathic PD and be within a Hoehn & Yahr Stage II - IV while in a peak "ON" state(levodopa in a therapeutic range). They had to have moderate to severely disabling LIDs for at least 25% of the waking day, as determined by Questions 32 and 33 in Part II of the UPDRS and a Mini-Mental State Examination (MMSE) score of ≥26. Patients with atypical Parkinson disorders, prior deep brain stimulation (DBS), unstable angina, a history of ventricular arrhythmias, or active peptic ulcer or a history of schizophrenia, schizoaffective disorder, or bipolar disease were excluded. Patients who actively smoked were also excluded. Table 9: Demographics
The drug, or a placebo identical in appearance and packaging, was administered orally 4 times a day in a blinded fashion. Patients were examined while in an "ON" state, when levodopa was in a therapeutic range. During the treatment phase, dosing was begun at 1 mg every 6 hours (total daily dose=4 mg/day) and escalated upwards at 2-week intervals as follows: 2 mg every 6 hours at Visit 1; 4 mg every 6 hours at Visit 2; 6 mg every 6 hours at Visit 3. Patients were maintained on 24 mg/day for 4 weeks. All patients, study site personnel, raters and the sponsor were blinded to treatment assignment.
The original UPDRS scale was used. […] In the UPDRS Part II, Question 13 is on Falling unrelated to Freezing. […] In Part II, Question 14 is on Freezing when Walking. This is a 5-point item and has two variables freezing and falls. […] Questions 13 and 14 were compared separately (Table 11). […] Table 10: UPDRS Part II (ADL), UPDRS Part III (Motor Examination)
LIDs were assessed by the UDysRS, the main measure of LIDs (Table 12). […] The study was conducted in accordance with the Declaration of Helsinki and Good Clinical Practice Guidelines. All sites received approval from an institutional review board and written informed consent was obtained from each patient prior to participation. Table 12. Unified Dyskinesia Rating Scale (UDysRS)
All hypotheses were tested using 2-sided tests with alpha set at the 0.050 level of significance. In general, efficacy data were summarized by treatment group, and safety data were summarized by treatment group and overall.

[2] = oral administration of capsules
[3] = tested on: patients with idiopathic PD and levodopa induced dyskinesias (LIDs); remark: listed apart in the source
Experimental: Efficacy was measured with the Unified Dyskinesia Rating Scale (UDysRS), a semi- quantitative assessment, FDA-validated instrument to assess gait, balance and dyskinesia in PD. […] Dosing was begun at 1 mg every 6 hours to a final dose of 24 mg per day.
All hypotheses were tested using 2-sided tests with alpha set at the 0.050 level of significance. In general, efficacy data were summarized by treatment group, and safety data were summarized by treatment group and overall. In all analyses, assumptions such as normality and homogeneity of variance were examined prior to conducting the proposed parametric statistical procedures. Categorical variables were analyzed by Fisher's exact 2- tailed test and continuous variables were tested under 2-sample t-tests. The equality of variances was examined using an F-test before applying the 2-sample t-test.

[4] = Baseline to Week 10, 30 NP002 patients
[5] = Baseline to Week 10, minus = improvement, 30 NP002 patients
[6] = Baseline to Week 10, plus = worsening, 30 NP002 patients
[7] = NP002 Patients Baseline (before treatment)
[8] = NP002 patients at 10 Weeks, up to 24 mg/day orally
[9] = NP002 patients at Baseline (before treatment)

**Q.** What does the source list for CN1CCCC1c1cccnc1.O=C(O)C(O)C(O)C(=O)O (centres unmarked) [NP002, Nicotine Bitartrate]?
**A.** Tmax (clinical): ~1.5 h; UPDRS Part II (ADL) and Part III (Motor Examination) after treatment, NP002 vs placebo ([1]; 10 weeks): no significant differences; Falls (UPDRS Part II Question 13), number of patients with change -3 ([1]; Baseline to Week 10, 5-point scale, minus = improvement, 30 NP002 patients): 1; FOG (UPDRS Part II Question 14), number of patients with No Change [1, 4]: 17; FOG (UPDRS Part II Question 14), number of patients with change +2 [1, 4]: 0; FOG (UPDRS Part II Question 14), number of patients with change +3 [1, 4]: 0; FOG (UPDRS Part II Question 14), number of patients with change -1 [1, 4]: 10; FOG (UPDRS Part II Question 14), number of patients with change -2 [1, 4]: 2; Falls (UPDRS Part II Question 13), number of patients with No Change [1, 4]: 16; Falls (UPDRS Part II Question 13), number of patients with change +2 [1, 4]: 0; Falls (UPDRS Part II Question 13), number of patients with change +3 [1, 4]: 0; Falls (UPDRS Part II Question 13), number of patients with change -1 [1, 4]: 7; Falls (UPDRS Part II Question 13), number of patients with change -2 [1, 4]: 5; Pull Test (Item 30 of the UPDRS Part III), number of patients with No Change [1, 4]: 19; Pull Test (Item 30 of the UPDRS Part III), number of patients with change +2 [1, 4]: 0; Pull Test (Item 30 of the UPDRS Part III), number of patients with change +3 [1, 4]: 0; Pull Test (Item 30 of the UPDRS Part III), number of patients with change -1 [1, 4]: 5; Pull Test (Item 30 of the UPDRS Part III), number of patients with change -2 [1, 4]: 5; FOG (UPDRS Part II Question 14), number of patients with change -3 [1, 5]: 0; Pull Test (Item 30 of the UPDRS Part III), number of patients with change -3 [1, 5]: 0; FOG (UPDRS Part II Question 14), number of patients with change +1 [1, 6]: 1; Falls (UPDRS Part II Question 13), number of patients with change +1 [1, 6]: 1; Pull Test (Item 30 of the UPDRS Part III), number of patients with change +1 [1, 6]: 1; patients with a reduction in falls ([1]; Fourteen of 30 NP002 patients, p=0.00857 vs placebo): 47%; Total Score UDysRS [1, 7]: 51.7 +/-16.9; UDysRS Evaluation of Dyskinesias on 7 Body Parts [1, 7]: 13.5 +/-5.4; UDysRS Evaluation of Dyskinesias on Ambulation [1, 7]: 9.5 +/- 6.0; UDysRS Evaluation of Dyskinesias on Communication [1, 7]: 10.5 +/-4.8; UDysRS Evaluation of Dyskinesias on Dressing [1, 7]: 11.3 +/-6.2; UDysRS Evaluation of Dyskinesias on Drinking [1, 7]: 9.1 +/- 5.6; Total Score UDysRS ([1]; NP002 Patients Week 10): 36.4 +/-16.1; UDysRS Evaluation of Dyskinesias on 7 Body Parts ([1]; NP002 Patients Week 10): 8.5 +/- 5.4; UDysRS Evaluation of Dyskinesias on Ambulation ([1]; NP002 Patients Week 10): 5.1 +/- 5.3; UDysRS Evaluation of Dyskinesias on Communication ([1]; NP002 Patients Week 10): 7.0 +/- 5.0; UDysRS Evaluation of Dyskinesias on Dressing ([1]; NP002 Patients Week 10): 6.9 +/- 5.5; UDysRS Evaluation of Dyskinesias on Drinking ([1]; NP002 Patients Week 10): 5.3 +/- 5.0; UPDRS II [1, 8]: 10.1 ± 5.3; UPDRS III [1, 8]: 17.3 ± 10.6; UPDRS II [1, 9]: 13.1 ± 6.0; UPDRS III [1, 9]: 20.0 ± 8.8; Difference in LS Means 95% Confidence Interval, UPDRS Part III ([1]; NP002 versus Placebo, p-value 0.337): -18.3 ± 1.8 (-5.8, 2.0); Difference in LS Means 95% Confidence Interval, UPDRS Part II ([1]; NP002 versus Placebo, p-value 0.631): 10.1 ± 0.96 (-3.2, 2.0); UDysRS Evaluation of Dyskinesias on Ambulation, Difference LS Means ([1]; NP002 vs placebo, p-value 0.011*): -3.7 +/-1.9; UDysRS Evaluation of Dyskinesias on 7 Body Parts, Difference LS Means ([1]; NP002 vs placebo, p-value 0.062): -2.8 +/-2.6; Total Score UDysRS, Difference LS Means ([1]; NP002 vs placebo, p-value 0.092): -6.7 +/-4.1; UDysRS Evaluation of Dyskinesias on Dressing, Difference LS Means ([1]; NP002 vs placebo, p-value 0.139): -2.1 +/-1.4; UDysRS Evaluation of Dyskinesias on Drinking, Difference LS Means ([1]; NP002 vs placebo, p-value 0.171): -2.4 +/-1.7; UDysRS Evaluation of Dyskinesias on Communication, Difference LS Means ([1]; NP002 vs placebo, p-value 0.189): -1.9 +/-1.4; patients with a reduction in retropulsion ([1]; Ten of 30 NP002 patients, p=0.0228 vs placebo): 33.3%; patients with a reduction in FOG ([1]; Twelve of 30 NP002 patients, p=0.04301 vs placebo): 40%; PGI-C responders (subjects with a score of 1, 2, or 3) ([1]; Visit 4 (Week 10), 21 responders, p = 0.0048 vs placebo): 77.8%; UPDRS II Change ([1]; baseline to 10 weeks): 2.8 + 5.2; UPDRS III Change ([1]; baseline to 10 weeks): 2.0 + 7.5; patient- and physician-rated assessments of efficacy versus placebo ([1]; human, in vivo): superior to placebo; patients with either a reduction or absence of FOG during the active phase ([1]; human, in vivo): ~73%; patients with either a reduction or absence of falls during the active phase ([1]; human, in vivo): ~87%; patients with no FOG during the study ([1]; of 30 NP002 patients): 10; patients with no falls during the study ([1]; of 30 NP002 patients): 12; reduction (improvement) in the effect of LIDs on ambulation, UDysRS ambulation subtest ([1]; p=0.011 vs placebo): 46%; reduction in LIDs, Total UDysRS ([1]; p=0.092 vs placebo): 39%; time by which the plasma concentration of nicotine returns close to baseline [2]: ~ 6 hours; Adverse Event: Constipation ([3]; N=35): 5 (14.3) Number (%); Adverse Event: Diarrhea ([3]; N=35): 2 (5.7) Number (%); Adverse Event: Dizziness ([3]; N=35): 7 (20.0) Number (%); Adverse Event: Fatigue ([3]; N=35): 3 (8.6) Number (%); Adverse Event: Headache ([3]; N=35): 2 (5.7) Number (%); Adverse Event: Insomnia ([3]; N=35): 0 (0.0) Number (%); Adverse Event: Nausea ([3]; N=35): 13 (37.1) Number (%); Adverse Event: Nightmare ([3]; N=35): 2 (5.7) Number (%); Adverse Event: Pain ([3]; N=35): 3 (8.6) Number (%); Adverse Event: Pain in extremity ([3]; N=35): 2 (5.7) Number (%); Adverse Event: Tremor ([3]; N=35): 2 (5.7) Number (%); Adverse Event: Vomiting ([3]; N=35): 4 (11.4) Number (%); Number (%) of subject with any AE ([3]; N=35): 26 (74.3) Number (%); Serum cotinine levels ([3]; compliance check): paralleled dosing of nicotine; adverse events reported ([3]; number of events among NP002 patients): 45; Primary reason for study discontinuation: Adverse event ([3]; of 35 randomized): 6 (17.1) n (%); Primary reason for study discontinuation: Protocol violation ([3]; of 35 randomized): 2 (5.7) n (%); Subjects who completed study per protocol ([3]; of 35 randomized): 25 (71.4) n (%); Subjects who discontinued the study ([3]; of 35 randomized): 10 (28.6) n (%); subjects who completed the study ([3]; of 35 randomized): 25 subjects; subjects who withdrew because of AEs ([3]; of 35 randomized): 6 subjects; subjects who withdrew because of protocol violations ([3]; of 35 randomized): 2 subjects; subjects who withdrew from the study ([3]; of 35 randomized): 10 subjects; Primary reason for study discontinuation: Other ([3]; subject going on vacation, of 35 randomized): 2 (5.7) n (%); Subjects who required dose reduction or discontinuation of study treatment ([3]; treated subjects with any adverse events with action taken = reduced/discontinued study drug, of 35 randomized): 7 (20.0) n (%)
